Reference: patent US20220119354A1, “DIAMINO-SUBSTITUTED PYRIDINES AND PYRIMIDINES AS HERBICIDES” (FMC Corporation, priority 2019, published 2022)

How the values were obtained:
Assay type in all cases: in vivo
[1] = tested on: galium (catchweed bedstraw, Galium aparine); test: Test A postemergence, galium; conditions: 0 to 100 scale
Summary of the method: (§1)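 Plants grown in a loam soil and sand blend were treated either preemergence by directed soil spray or postemergence when 2 to 10 cm tall (one- to two-leaf stage). Formulation: non-phytotoxic solvent mixture with surfactant. Greenhouse hold ~10 d, then visual injury assessment on a 0–100 scale.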

[2] = tested on: wheat (Triticum aestivum); test: Test A postemergence, wheat; conditions: 0 to 100 scale
Summary of the method: as §1

[3] = tested on: sedge, umbrella (small-flower umbrella sedge, Cyperus difformis); test: Test B flooded paddy test, umbrella sedge; conditions: Flood, 250 g ai/ha, applied to paddy water, 2-leaf stage, visual evaluation after 13 to 15 d
Summary of the method: (§2)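 Visual injury scores run from 0 (no effect) to 100 (complete control), assigned by comparison with controls 13 to 15 d after treatment. Treatment went into floodwater standing 3 cm over the soil of pots holding 2-leaf plants.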

kochia (Kochia scoparia) [4] = test: Test A postemergence, kochia; conditions: 0 to 100 scale
Summary of the method: as §1

[5] = tested on: ragweed (common ragweed, Ambrosia elatior); test: Test A postemergence, ragweed; conditions: 0 to 100 scale
Summary of the method: as §1

[6] = tested on: barnyardgrass (Echinochloa crus-galli); test: Test A preemergence, barnyardgrass; conditions: 0 to 100 scale; for Barnyardgrass plant response rating: 125 g ai/ha, 0 is no effect, 100 is complete control; for Plant response rating, Barnyardgrass: 500 g ai/ha
Summary of the method: as §1

[7] = tested on: foxtail, giant (Setaria faberii); test: Test A postemergence, giant foxtail; conditions: 0 to 100 scale
Summary of the method: as §1

[8] = tested on: ducksalad (Heteranthera limosa); test: Test B flooded paddy test, ducksalad; conditions: Flood, 250 g ai/ha, applied to paddy water, 2-leaf stage, visual evaluation after 13 to 15 d
Summary of the method: as §2

[9] = tested on: pigweed (Amaranthus retroflexus); test: Test A preemergence, pigweed; conditions: 0 to 100 scale; for Pigweed plant response rating: 125 g ai/ha, 0 is no effect, 100 is complete control; for Plant response rating, Pigweed: 500 g ai/ha
Summary of the method: as §1

[10] = tested on: foxtail, giant (Setaria faberii); test: Test A preemergence, giant foxtail; conditions: 0 to 100 scale; for Plant response rating, Foxtail, Giant: 500 g ai/ha
Summary of the method: as §1

[11] = tested on: barnyardgrass (Echinochloa crus-galli); test: Test B flooded paddy test, barnyardgrass; conditions: Flood, 250 g ai/ha, applied to paddy water, 2-leaf stage, visual evaluation after 13 to 15 d
Summary of the method: as §2

[12] = tested on: blackgrass (Alopecurus myosuroides); test: Test A postemergence, blackgrass; conditions: 0 to 100 scale
Summary of the method: as §1

[13] = tested on: ragweed (common ragweed, Ambrosia elatior); test: Test A preemergence, ragweed; conditions: 0 to 100 scale; for Ragweed plant response rating: 125 g ai/ha, 0 is no effect, 100 is complete control; for Plant response rating, Ragweed: 500 g ai/ha
Summary of the method: as §1

corn (Zea mays) = test: Test A postemergence, corn; conditions: 0 to 100 scale
Summary of the method: as §1

[14] = tested on: pigweed (Amaranthus retroflexus); test: Test A postemergence, pigweed; conditions: 0 to 100 scale
Summary of the method: as §1

rice (Oryza sativa) = test: Test B flooded paddy test, rice; conditions: Flood, 250 g ai/ha, applied to paddy water, 2-leaf stage, visual evaluation after 13 to 15 d
Summary of the method: as §2

[15] = tested on: barnyardgrass (Echinochloa crus-galli); test: Test A postemergence, barnyardgrass; conditions: 0 to 100 scale
Summary of the method: as §1

[16] = tested on: ryegrass, Italian (Lolium multiflorum); test: Test A preemergence, Italian ryegrass; conditions: 0 to 100 scale; for Ryegrass, Italian plant response rating: 125 g ai/ha, 0 is no effect, 100 is complete control; for Plant response rating, Ryegrass, Italian: 500 g ai/ha
Summary of the method: as §1

[17] = tested on: ryegrass, Italian (Lolium multiflorum); test: Test A postemergence, Italian ryegrass; conditions: 0 to 100 scale
Summary of the method: as §1

kochia (Kochia scoparia) [18] = test: Test A preemergence, kochia; conditions: 0 to 100 scale; for Kochia plant response rating: 125 g ai/ha, 0 is no effect, 100 is complete control; for Plant response rating, Kochia: 500 g ai/ha
Summary of the method: as §1

SMILES | Plant response rating, Galium ([1]; 125 g ai/ha) | Plant response rating, Galium ([1]; 500 g ai/ha) | Plant response rating, Wheat ([2]; 125 g ai/ha) | Plant response rating, Wheat ([2]; 500 g ai/ha) | Plant response rating, Sedge, Umbrella (0 to 100 scale, 0 is no effect, 100 is complete control) [3] | Plant response rating, Kochia (kochia (Kochia scoparia) [4]; 125 g ai/ha) | Plant response rating, Kochia (kochia (Kochia scoparia) [4]; 500 g ai/ha) | Plant response rating, Ragweed ([5]; 125 g ai/ha) | Plant response rating, Ragweed ([5]; 500 g ai/ha) | Barnyardgrass plant response rating [6] | Plant response rating, Barnyardgrass [6] | Plant response rating, Foxtail, Giant ([7]; 125 g ai/ha) | Plant response rating, Foxtail, Giant ([7]; 500 g ai/ha) | Plant response rating, Ducksalad (0 to 100 scale, 0 is no effect, 100 is complete control) [8] | Pigweed plant response rating [9] | Plant response rating, Pigweed [9] | Plant response rating, Foxtail, Giant [10] | Plant response rating, Barnyardgrass (0 to 100 scale, 0 is no effect, 100 is complete control) [11] | Plant response rating, Blackgrass ([12]; 125 g ai/ha) | Plant response rating, Blackgrass ([12]; 500 g ai/ha) | also measured
CC(COc1cccc(F)c1)Nc1ncc(C(F)(F)F)c(N)n1 (centres unmarked) [Compound 37] | 20 | 40 | 0 | 0 | 0 | 0 | 0 | 0 | 0 | 0 | 0 | 0 | 0 | 0 | 50 | 70 | 0 | 0 | 0 | 0 | Foxtail, Giant plant response rating ([10]; 125 g ai/ha, 0 is no effect, 100 is complete control): 0; Ragweed plant response rating [13]: 0; Plant response rating, Ragweed [13]: 100; Plant response rating, Corn (corn (Zea mays); 125 g ai/ha): 0; Plant response rating, Corn (corn (Zea mays); 500 g ai/ha): 0; Plant response rating, Pigweed ([14]; 125 g ai/ha): 0; Plant response rating, Pigweed ([14]; 500 g ai/ha): 40; Plant response rating, Rice (0 to 100 scale, 0 is no effect, 100 is complete control) (rice (Oryza sativa)): 0; Plant response rating, Barnyardgrass ([15]; 125 g ai/ha): 0; Plant response rating, Barnyardgrass ([15]; 500 g ai/ha): 0; Ryegrass, Italian plant response rating [16]: 0; Plant response rating, Ryegrass, Italian [16]: 0; Plant response rating, Ryegrass, Italian ([17]; 125 g ai/ha): 0; Plant response rating, Ryegrass, Italian ([17]; 500 g ai/ha): 0; Kochia plant response rating (kochia (Kochia scoparia) [18]): 0; Plant response rating, Kochia (kochia (Kochia scoparia) [18]): 0
Cc1cc(F)cc(OCC(C)Nc2ncc(C(F)(F)F)c(N)n2)c1 (centres unmarked) [Compound 39] | 70 | 70 | 0 | 0 | 0 | 40 | 70 | 0 | 40 | 40 | 90 | 0 | 10 | 0 | 70 | 80 | 90 | 0 | 0 | 0 | Ragweed plant response rating [13]: 70; Plant response rating, Ragweed [13]: 100; Plant response rating, Corn (corn (Zea mays); 125 g ai/ha): 10; Plant response rating, Corn (corn (Zea mays); 500 g ai/ha): 20; Plant response rating, Pigweed ([14]; 125 g ai/ha): 20; Plant response rating, Pigweed ([14]; 500 g ai/ha): 60; Plant response rating, Rice (0 to 100 scale, 0 is no effect, 100 is complete control) (rice (Oryza sativa)): 0; Plant response rating, Barnyardgrass ([15]; 125 g ai/ha): 0; Plant response rating, Barnyardgrass ([15]; 500 g ai/ha): 0; Ryegrass, Italian plant response rating [16]: 0; Plant response rating, Ryegrass, Italian [16]: 10; Plant response rating, Ryegrass, Italian ([17]; 125 g ai/ha): 0; Plant response rating, Ryegrass, Italian ([17]; 500 g ai/ha): 50; Kochia plant response rating (kochia (Kochia scoparia) [18]): 0; Plant response rating, Kochia (kochia (Kochia scoparia) [18]): 80
